Reference: patent publication US10174053B2, “2 substituted cephem compounds” (Glaxo Group Limited, priority 2012, dated 2019)
In brackets after ≈: the same amount, converted by molar mass. Like-named read-outs stand apart in the source and are kept apart here.

How the values were obtained:
Test in all cases: In vitro antimicrobial activity, MIC by broth microdilution (CLSI)
Type in all cases: cell-based
K. pneumoniae SR01358 = conditions: for MIC: Klebsiella pneumoniae
In short: (§1)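 MIC (μg/mL) by CLSI broth microdilution, inoculum 5×10^5 cfu/mL, in cation-adjusted Iso-Sensitest broth containing human apo-transferrin.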

A. baumannii JMI7 = conditions: for MIC: Acinetobacter baumannii
In short: as §1

E. Coli JMI1890 = conditions: for MIC: Escherichia coli, read-out: Minimum Inhibitory Concentration (MIC) E. Coli JMI:1890
In short: as §1

A. baumannii JMI2346 = conditions: for MIC: Acinetobacter baumannii
In short: as §1

[1] = SR01358, KPC-2, ESBL and KPC-type carbapenemase producing strain, 5×10^5 cfu/mL, cation-adjusted Iso-Sensitest broth containing human Apo-transferrin, read-out: Minimum Inhibitory Concentration (MIC) K. pneumoniae SR01358
[2] = JMI7, PER-1, OXA-23, 51, ESBL and OXA-type carbapenemase producing strain, 5×10^5 cfu/mL, cation-adjusted Iso-Sensitest broth containing human Apo-transferrin, read-out: Minimum Inhibitory Concentration (MIC) A. baumannii JMI:7
[3] = PER-1, TEM-1, ESBL producing strain, 5×10^5 cfu/mL, cation-adjusted Iso-Sensitest broth containing human Apo-transferrin
[4] = JMI2346, OXA-51, TEM, ESBL and OXA-type carbapenemase producing strain, 5×10^5 cfu/mL, cation-adjusted Iso-Sensitest broth containing human Apo-transferrin, read-out: Minimum Inhibitory Concentration (MIC) A. baumannii JMI:2346
[5] = KPC-2, ESBL and KPC-type carbapenemase producing strain, 5×10^5 cfu/mL, cation-adjusted Iso-Sensitest broth containing human Apo-transferrin
[6] = PER-1, OXA-23, 51, ESBL and OXA-type carbapenemase producing strain, 5×10^5 cfu/mL, cation-adjusted Iso-Sensitest broth containing human Apo-transferrin
[7] = OXA-51, TEM, ESBL and OXA-type carbapenemase producing strain, 5×10^5 cfu/mL, cation-adjusted Iso-Sensitest broth containing human Apo-transferrin

| Structure (SMILES) | MIC (K. pneumoniae SR01358; [1]) [µg/mL] | MIC (A. baumannii JMI7; [2]) [µg/mL] | MIC (E. Coli JMI1890; [3]) [µg/mL] | MIC (A. baumannii JMI2346; [4]) [µg/mL] | other results |
| --- | --- | --- | --- | --- | --- |
| C[C@@H]1S[C@@H]2[C@H](NC(=O)/C(=N\OC(C)(C)C(=O)[O-])c3csc(N)n3)C(=O)N2C(C(=O)[O-])=C1C[N+]1(CCNC(=O)C(=O)c2ccc(O)c(O)c2)CCCC1.[Na+] [Compound I-109] | 0.063 | 1 | 0.5 | 8 |  |
| C[C@@H]1S[C@@H]2[C@H](NC(=O)/C(=N\OC(C)(C)C(=O)[O-])c3csc(N)n3)C(=O)N2C(C(=O)[O-])=C1C[N+]12CCC(Cn3ncc4c(Cl)c(O)c(O)cc4c3=O)(CC1)CC2.[Na+] [Compound I-113] | ≤ 0.031 | 0.25 | 0.25 | 4 |  |
| C[C@@H]1S[C@@H]2[C@H](NC(=O)/C(=N\OC(C)(C)C(=O)[O-])c3csc(N)n3)C(=O)N2C(C(=O)[O-])=C1C[N+]12CCC(CNN3C(=O)c4cc(O)c(O)c(Cl)c4C3=O)(CC1)CC2.[Na+] [Compound I-114] | ≤ 0.031 | 0.5 | 0.125 | 4 |  |
| C[C@@H]1S[C@@H]2[C@H](NC(=O)/C(=N\OC(C)(C)C(=O)[O-])c3csc(N)n3)C(=O)N2C(C(=O)[O-])=C1C[N+]12CCC(CN3C(=O)c4cc(O)c(O)cc4C3=O)(CC1)C2.[Na+] [Compound I-116] | ≤ 0.031 | 0.25 | ≤ 0.031 | 1 |  |
| C[C@@H]1S[C@@H]2[C@H](NC(=O)/C(=N\OC(C)(C)C(=O)[O-])c3csc(N)n3)C(=O)N2C(C(=O)[O-])=C1C[N+]12CCC(CNC(=O)c3cc(O)c(O)c(F)c3)(CC1)C2.[Na+] [Compound I-117] | 0.25 | 0.5 | ≤ 0.031 | 1 |  |
| C[C@@H]1S[C@@H]2[C@H](NC(=O)/C(=N\OC(C)(C)C(=O)[O-])c3csc(N)n3)C(=O)N2C(C(=O)[O-])=C1C[N+]12CCCC(CNC(=O)c3ccc(O)c(O)c3Cl)(CCC1)C2.[Na+] [Compound I-118] | 0.063 | 0.25 | ≤ 0.031 | 0.5 |  |
| C[C@@H]1S[C@@H]2[C@H](NC(=O)/C(=N\OC(C)(C)C(=O)[O-])c3csc(N)n3)C(=O)N2C(C(=O)O)=C1C[N@+]1(C)[C@@H]2CC[C@H]1C[C@@H](NC(=O)c1cn(C3CC3)c3cc(O)c(O)c(Cl)c3c1=O)C2 [Compound I-120] | ≤ 0.031 | 0.5 (≈ 0.556 µM) | 0.063 (≈ 0.07 µM) | 2 (≈ 2.22 µM) |  |
| CCn1cc(C(=O)N[C@H]2C[C@H]3CC[C@@H](C2)[N@+]3(C)CC2=C(C(=O)O)N3C(=O)[C@@H](NC(=O)/C(=N\OC(C)(C)C(=O)[O-])c4csc(N)n4)[C@H]3S[C@H]2C)c(=O)c2c(Cl)c(O)c(O)cc21 [Compound I-121] | ≤ 0.031 | 0.5 (≈ 0.563 µM) | 0.063 (≈ 0.071 µM) | 2 (≈ 2.25 µM) |  |
| C[C@@H]1S[C@@H]2[C@H](NC(=O)/C(=N\OC(C)(C)C(=O)[O-])c3csc(N)n3)C(=O)N2C(C(=O)O)=C1C[N+]12CCC(Cn3[nH]c(=O)c4cc(O)c(O)cc4c3=O)(CC1)CC2 [Compound I-122] | ≤ 0.031 | 0.5 (≈ 0.626 µM) | 0.25 (≈ 0.313 µM) | 2 (≈ 2.5 µM) |  |
| C[C@@H]1S[C@@H]2[C@H](NC(=O)/C(=N\OC(C)(C)C(=O)[O-])c3csc(N)n3)C(=O)N2C(C(=O)O)=C1C[N+]12CCC(CNN3C(=O)c4cc(O)c(O)cc4C3=O)(CC1)CC2 [Compound I-123] | ≤ 0.031 | 0.5 (≈ 0.626 µM) | 0.125 (≈ 0.156 µM) | 4 (≈ 5.01 µM) |  |
| C[C@@H]1S[C@@H]2[C@H](NC(=O)/C(=N\OC(C)(C)C(=O)O)c3csc(N)n3)C(=O)N2C(C(=O)[O-])=C1C[N+]12CCC(Cn3ncc4cc(O)c(O)cc4c3=O)(CC1)CC2 [Compound I-124] | ≤ 0.031 | 0.5 (≈ 0.639 µM) | 0.125 (≈ 0.16 µM) | 2 (≈ 2.55 µM) |  |
| C[C@@H]1S[C@@H]2[C@H](NC(=O)/C(=N\OC(C)(C)C(=O)O)c3csc(N)n3)C(=O)N2C(C(=O)[O-])=C1C[N+]12CCC(Cn3ncc4cc(O)c(O)c(Cl)c4c3=O)(CC1)CC2 [Compound I-125] | ≤ 0.031 | 0.5 (≈ 0.612 µM) | 0.125 (≈ 0.153 µM) | 8 (≈ 9.79 µM) |  |
| C[C@@H]1S[C@@H]2[C@H](NC(=O)/C(=N\OC(C)(C)C(=O)O)c3csc(N)n3)C(=O)N2C(C(=O)[O-])=C1C[N+]12CCC(Cn3ncc4cc(O)c(O)cc4c3=O)(CC1)C2 [Compound I-126] | ≤ 0.031 | 0.25 (≈ 0.325 µM) | 0.063 (≈ 0.0819 µM) | 0.5 (≈ 0.65 µM) |  |
| CO/N=C(\C(=O)NCC12CC[N+](CC3=C(COO)N4C(=O)[C@@H](NC(=O)/C(=N\OC(C)(C)C(=O)[O-])c5csc(N)n5)[C@H]4S[C@H]3C)(CC1)CC2)c1cc(O)c(O)c(Cl)c1 [Compound I-131] |  |  |  |  | Minimum Inhibitory Concentration (MIC) K. pneumoniae SR01358 (K. pneumoniae SR01358; [5]): 0.063 µg/mL; Minimum Inhibitory Concentration (MIC) A. baumannii JMI:7 (A. baumannii JMI7; [6]): 2 µg/mL; Minimum Inhibitory Concentration (MIC) E. Coli JMI:1890 (E. Coli JMI1890; [3]): 0.125 µg/mL; Minimum Inhibitory Concentration (MIC) A. baumannii JMI:2346 (A. baumannii JMI2346; [7]): 2 µg/mL |
| CO/N=C(\C(=O)NCC12CC[N+](CC3=C(COO)N4C(=O)[C@@H](NC(=O)/C(=N\OC(C)(C)C(=O)[O-])c5csc(N)n5)[C@H]4S[C@H]3C)(CC1)CC2)c1cc(O)c(O)c(F)c1 [Compound I-132] |  |  |  |  | Minimum Inhibitory Concentration (MIC) K. pneumoniae SR01358 (K. pneumoniae SR01358; [5]): ≤0.031 µg/mL; Minimum Inhibitory Concentration (MIC) A. baumannii JMI:7 (A. baumannii JMI7; [6]): 1 µg/mL; Minimum Inhibitory Concentration (MIC) E. Coli JMI:1890 (E. Coli JMI1890; [3]): 0.25 µg/mL; Minimum Inhibitory Concentration (MIC) A. baumannii JMI:2346 (A. baumannii JMI2346; [7]): 4 µg/mL |
| C[C@@H]1S[C@@H]2[C@H](NC(=O)/C(=N\OC(C)(C)C(=O)[O-])c3csc(N)n3)C(=O)N2C(C(=O)O)=C1C[N+]12CCC(CNC(=O)/C(=N\O)c3cc(O)c(O)c(F)c3)(CC1)CC2 [Compound I-136] | ≤ 0.031 | 1 (≈ 1.22 µM) | 0.5 (≈ 0.611 µM) | 2 (≈ 2.44 µM) |  |
| C[C@@H]1S[C@@H]2[C@H](NC(=O)/C(=N\OC(C)(C)C(=O)[O-])c3csc(N)n3)C(=O)N2C(C(=O)O)=C1C[N+]12CCC(CC1)N(C(=O)/C(=N\O)c1ccc(O)c(O)c1Cl)CC2 [Compound I-137] | ≤ 0.031 | 0.5 (≈ 0.609 µM) | 0.25 (≈ 0.304 µM) | 2 (≈ 2.44 µM) |  |
| C[C@@H]1S[C@@H]2[C@H](NC(=O)/C(=N\OC(C)(C)C(=O)[O-])c3csc(N)n3)C(=O)N2C(C(=O)O)=C1C[N+]12CCC(CC1)N(C(=O)C(=NO)c1cc(O)c(O)c(Cl)c1)CC2 [Compound I-138] |  |  |  |  | MIC (K. pneumoniae SR01358; SR01358, read-out: Minimum Inhibitory Concentration (MIC) K. pneumoniae SR01358): ≤ 0.031 µg/mL; MIC (A. baumannii JMI7; JMI7, read-out: Minimum Inhibitory Concentration (MIC) A. baumannii JMI:7): 0.5 µg/mL (≈ 0.609 µM); MIC (E. Coli JMI1890): 0.25 µg/mL (≈ 0.304 µM); MIC (A. baumannii JMI2346; JMI2346, read-out: Minimum Inhibitory Concentration (MIC) A. baumannii JMI:2346): 4 µg/mL (≈ 4.87 µM) |
| C[C@@H]1S[C@@H]2[C@H](NC(=O)/C(=N\OC(C)(C)C(=O)[O-])c3csc(N)n3)C(=O)N2C(C(=O)O)=C1C[N+]12CCC(CNC(=O)c3cc(O)c(O)c(Cl)c3)(CC1)C2 [Compound I-142] | ≤ 0.031 | 0.5 (≈ 0.642 µM) | 0.25 (≈ 0.321 µM) | 2 (≈ 2.57 µM) |  |
| C[C@@H]1S[C@@H]2[C@H](NC(=O)/C(=N\OC(C)(C)C(=O)O)c3csc(N)n3)C(=O)N2C(C(=O)[O-])=C1C[N+]12CCC(Cn3cnc4cc(O)c(O)cc4c3=O)(CC1)CC2 [Compound I-150, (4S,6R,7R)-7-((Z)-2-(2-aminothiazol-4-yl)-2-(((2-carboxypropan-2-yl)oxy)imino)acetamido)-3-((4-((6,7-dihydroxy-4-oxoquinazolin-3(4H)-yl)methyl)quinuclidin-1-ium-1-yl)methyl)-4-methyl-8-oxo-5-thia-1-azabicyclo[4.2.0]oct-2-ene-2-carboxylate] | ≤ 0.031 | 0.5 (≈ 0.639 µM) | 2 (≈ 2.55 µM) | 2 (≈ 2.55 µM) |  |
